For one data set, the system named is A549. Kind of data set: In vitro test against cancer cell lines, A549. Type of data set: cell-based, Human. To be noted: A549, FR status −; evaluated from 0.1-100 nM. Here is the method:
(§1) In vitro test against the various cancer cell lines. Cells are heavily seeded in 24-well Falcon plates and allowed to form nearly confluent monolayers overnight. Thirty minutes prior to the addition of the test compound, spent medium is aspirated from all wells and replaced with fresh folate-deficient RPMI medium (FFRPMI). A subset of wells are designated to receive media containing 100 μM folic acid. The cells in the designated wells are used to determine the targeting specificity. […] Following one rinse with 1 mL of fresh FFRPMI containing 10% heat-inactivated fetal calf serum, each well receives 1 mL of medium containing increasing concentrations of test compound (4 wells per sample) in the presence or absence of 100 μM free folic acid as indicated. Treated cells are pulsed for 2 h at 37° C., rinsed 4 times with 0.5 mL of media, and then chased in 1 mL of fresh medium up to 70 h. Spent medium is aspirated from all wells and replaced with fresh medium containing 5 μCi/mL ^3H-thymidine. […] A 450 μL aliquot of each solubilized sample is transferred to a scintillation vial containing 3 mL of Ecolume scintillation cocktail and then counted in a liquid scintillation counter. Final tabulated results are expressed as the percentage of ^3H-thymidine incorporation relative to untreated controls.
(§2) Folate receptor expressing cells. […] EC1456 was evaluated from 0.1-100 nM.

The next data set addresses T1, folate receptors (FRs) (Homo sapiens, UniProt P15328).
T1 construct: FR-positive KB cells were heavily seeded into 24-well cell culture plates; endogenous in cells; host or cells: KB cells (human cervical carcinoma)
Kind of data set: Relative affinity assay (3H-folic acid displacement on KB cells). Type of data set: binding. To be noted: compared to folic acid (relative affinity=1), 10% serum/FDRPMI. Here is the method:
Relative Affinity Assay. The affinity for folate receptors (FRs) relative to folate was determined according to a previously described method (Westerhof, G. R., J. H. Schornagel, et al. (1995) Mol. Pharm. 48: 459-471) with slight modification. Briefly, FR-positive KB cells were heavily seeded into 24-well cell culture plates and allowed to adhere to the plastic for 18 h. Spent incubation media was replaced in designated wells with folate-free RPMI (FFRPMI) supplemented with 100 nM ^3H-folic acid in the absence and presence of increasing concentrations of test article or folic acid. Cells were incubated for 60 min at 37° C. and then rinsed 3 times with PBS, pH 7.4. Five hundred microliters of 1% SDS in PBS, pH 7.4, were added per well. Cell lysates were then collected and added to individual vials containing 5 mL of scintillation cocktail, and then counted for radioactivity. Negative control tubes contained only the ^3H-folic acid in FFRPMI (no competitor). Positive control tubes contained a final concentration of 1 mM folic acid, and CPMs measured in these samples (representing non-specific binding of label) were subtracted from all samples.

Another data set relates to LNCaP. Nature of the data set: In vitro test against cancer cell lines, LNCaP. Type of data set: cell-based, Human. The following applies: FR status −, evaluated from 0.1-100 nM, read-out: EC1456 Activity (IC50). The procedure:
as §1, §2

The next data set concerns HepG2. Kind of data set: In vitro test against cancer cell lines, HepG2. Type of data set: cell-based, Human. The following applies: HepG2, FR status −; evaluated from 0.1-100 nM. Here is the method:
as §1, §2

The next data set deals with AN3CA. Nature of the data set: In vitro test against cancer cell lines, AN3CA. The data set is classed as cell-based, Human. The following applies: FR status −, evaluated from 0.1-100 nM. Here is the method: as §1, §2
A further data set has as its system MDA-MB-231 tumors. Nature of the data set: Established subcutaneous MDA-MB-231 breast cancer xenograft. The data set is classed as in vivo, mice. The following applies: three times per week. The source says:
Inhibition of Tumor Growth in Mice.
Toxicity as Measured by Weight Loss.
Triple negative breast cancer (TNBC) is a subtype characterized by lack of gene expression for estrogen, progesterone and Her2/neu. TNBC is difficult to treat, and its death rate is disproportionately higher than for any other subtype of breast cancer.

A word on the IC50: it is the concentration at which inhibition is half-maximal.

“Also recorded” adds a separate entry of the source.

T1 sequence (P15328 25-234): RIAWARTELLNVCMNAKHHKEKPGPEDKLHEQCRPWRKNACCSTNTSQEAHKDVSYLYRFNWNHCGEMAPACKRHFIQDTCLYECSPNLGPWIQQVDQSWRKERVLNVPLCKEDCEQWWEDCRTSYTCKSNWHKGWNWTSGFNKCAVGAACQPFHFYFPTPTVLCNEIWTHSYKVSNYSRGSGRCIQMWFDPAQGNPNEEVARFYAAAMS

For `CCCC(=O)OCN(C(=O)[C@@H](NC(=O)[C@H]1CCCCN1C)[C@@H](C)CC)[C@H](C[C@@H](OC(C)=O)c1nc(C(=O)N[C@@H](Cc2ccc(O)cc2)C[C@H](C)C(=O)NNC(=O)OCCSSC[C@@H](NC(=O)[C@H](CCC(=O)NC[C@H](O)[C@@H](O)[C@H](O)[C@H](O)CO)NC(=O)[C@@H](CCC(=O)O)NC(=O)[C@H](CCC(=O)NC[C@H](O)[C@@H](O)[C@H](O)[C@H](O)CO)NC(=O)[C@@H](CCC(=O)O)NC(=O)[C@H](CCC(=O)NC[C@H](O)[C@@H](O)[C@H](O)[C@H](O)CO)NC(=O)CC[C@@H](NC(=O)c2ccc(NCc3cnc4nc(N)[nH]c(=O)c4n3)cc2)C(=O)O)C(=O)O)cs1)C(C)C` [EC1456], the “EC1456 Activity (IC50)” value in the data set with A549, in the data set with HepG2 and in the data set on AN3CA was “Inactive” each time. The “Relative Affinity” value on folate receptors (FRs) is recorded as 0.27. Besides, the IC50 with LNCaP was roughly 850 nM. Also, the “weight loss / gross whole animal toxicity (% weight change)” value in the data set on MDA-MB-231 tumors (2 μmmol/kg i.v., 2 weeks) is given as “did not cause gross whole animal toxicity; also recorded: not accompanied by significant weight loss”. Moreover, the cures with MDA-MB-231 tumors (2 μmmol/kg intravenous, 2 consecutive weeks) is 4 of 5.

Source of the values: patent US20140107316A1, “DRUG DELIVERY CONJUGATES CONTAINING UNNATURAL AMINO ACIDS AND METHODS FOR USING” (priority 2012, published 2014).
